From patent US4572907A, “High caloric product for I.V. administration” (Abbott Laboratories, priority 1984, dated 1986)

Experiments:
[1] = Stability of the compound, solid or in water (NMR and TLC analysis); assay type: physicochemical
[2] = Toxicity (LD50) when tested in mice; details: mouse, in vivo
Excerpt: Another advantage of the compounds of this invention are their low toxicity.

| SMILES | degradation at 0° after one month ([1]; 0°, one month, NMR and TLC analysis) | stability at 0° ([1]; 0°, substantially long periods of time) | hydrolysis in water after one month ([1]; 15 mg/mL in water, room temperature, one month) | stability in water ([1]; 15 mg/mL in water, room temperature, one week, TLC analysis) | acyl-migration products ([1]; aqueous solution, 60°) | relative hydrolysis of β- and α-anomers ([1]; aqueous solution, 60°) | α-anomers remaining after 36 hours ([1]; aqueous solution, 60°, 36 hours, α-anomers) | β-anomers remaining after 36 hours ([1]; aqueous solution, 60°, 36 hours, β-anomers) | hydrolysis of aqueous solution at 60° ([1]; aqueous solution, 60°, formation of D-glucose, NMR and TLC analysis) | time after which slow degradation of the solid was noted ([1]; solid compound, 60°, D-glucose and unidentified decomposition products (TLC)) [h] | LD50 [2] [mg/kg] |
| --- | --- | --- | --- | --- | --- | --- | --- | --- | --- | --- | --- |
| CCCCC(C(=O)OC1O[C@H](CO)[C@@H](O)[C@H](O)[C@H]1O)C(=O)OC1O[C@H](CO)[C@@H](O)[C@H](O)[C@H]1O (stereo partly drawn) [Example 2, Di-(1,1'-D-glucopyranosyl)n-butylmalonates] | no noticeable degradation | stable at 0° for substantially long periods of time | Partial hydrolysis into D-glucose | stable in water | No acyl-migration products were detected | hydrolysis of the β-anomers appeared faster than that of the α-anomers | some α-anomers were still present | completely disappeared | some hydrolysis after about two hours | 3 |  |
| CCC(C(=O)OC1O[C@H](CO)[C@@H](O)[C@H](O)[C@H]1O)C(=O)OC1O[C@H](CO)[C@@H](O)[C@H](O)[C@H]1O (stereo partly drawn) [Example 4, Di-(1,1'-D-glucopyranosyl)ethylmalonates] |  |  |  |  |  |  |  |  |  |  | 9700 |
